Source: patent US20140371210A1, “METHODS AND COMPOSITIONS FOR RAPID TRANSBUCCAL DELIVERY OF ACTIVE AGENTS” (Jaleva Pharmaceuticals, LLC, priority 2011, published 2014)
Like-named read-outs stand apart in the source and are kept apart here.

How the values were obtained:
[1] = cited from earlier work

Compound	cytoprotective effect of resin composition (human cells)	logD ([1]; pH 7.4)	logD ([1]; pH 5.5)
Cc1nnc2n1-c1ccc(Cl)cc1C(c1ccccc1)=NC2 [alprazolam]	cytoprotective effect has been shown		
O=C(O)Cc1ccccc1Nc1c(Cl)cccc1Cl [diclofenac]	cytoprotective effect has been shown		
CC[C@H]1OC(=O)[C@H](C)[C@@H](O[C@H]2C[C@@](C)(OC)[C@@H](O)[C@H](C)O2)[C@H](C)[C@@H](O[C@@H]2O[C@H](C)C[C@H](N(C)C)[C@H]2O)[C@](C)(O)C[C@@H](C)C(=O)[C@H](C)[C@@H](O)[C@]1(C)O [erythromycin]	cytoprotective effect has been shown		
CC(C)Cc1ccc(C(C)C(=O)O)cc1 (stereo not shown) [ibuprofen]	cytoprotective effect has been shown		
CNS(=O)(=O)CCc1ccc2[nH]cc(C3CCN(C)CC3)c2c1 [naratriptan]		−0.85	
CN1CCCC1c1cccnc1 (stereo not shown) [nicotine]	cytoprotective effect has been shown	−0.62	
Cc1nccn1CC1CCc2c(c3ccccc3n2C)C1=O (stereo not shown) [ondansetron]	cytoprotective effect has been shown	1.2	
CCCc1nn(C)c2c(=O)[nH]c(-c3cc(S(=O)(=O)N4CCN(C)CC4)ccc3OCC)nc12 [sildenafil]		2.26	1.83
CCCc1nc(C)c2c(=O)[nH]c(-c3cc(S(=O)(=O)N4CCN(CC)CC4)ccc3OCC)nn12 [vardenafil]		3.71	2.26
